Laboratory results published in patent US11485742B2, “2-azaspiro[3.4]octane derivatives as M4 agonists” (NOVARTIS AG, priority 2019, dated 2022).
pEC50: −log10 of the molar value.

How the values were obtained:
Assay type in all cases: cell-based
[1] = biological target: T1, human cloned CHRM5 receptor (Homo sapiens, UniProt P08912); assay: CHRM5 Ca++ Flux Assay (M5_CHO cells, agonist mode); details: for M5 FDSS PA % / Emax: Percent Activity (PA) measured to EC100 of Carbachol; for pEC50: agonist mode, geometric mean if tested more than once, read-out: M5 FDSS EC50; for Emax: read-out: M5 FDSS PA %
T1 construct: expressed in transfected cells; host or cells: CHO (M5_CHO)
T1 sequence (P08912 1-532): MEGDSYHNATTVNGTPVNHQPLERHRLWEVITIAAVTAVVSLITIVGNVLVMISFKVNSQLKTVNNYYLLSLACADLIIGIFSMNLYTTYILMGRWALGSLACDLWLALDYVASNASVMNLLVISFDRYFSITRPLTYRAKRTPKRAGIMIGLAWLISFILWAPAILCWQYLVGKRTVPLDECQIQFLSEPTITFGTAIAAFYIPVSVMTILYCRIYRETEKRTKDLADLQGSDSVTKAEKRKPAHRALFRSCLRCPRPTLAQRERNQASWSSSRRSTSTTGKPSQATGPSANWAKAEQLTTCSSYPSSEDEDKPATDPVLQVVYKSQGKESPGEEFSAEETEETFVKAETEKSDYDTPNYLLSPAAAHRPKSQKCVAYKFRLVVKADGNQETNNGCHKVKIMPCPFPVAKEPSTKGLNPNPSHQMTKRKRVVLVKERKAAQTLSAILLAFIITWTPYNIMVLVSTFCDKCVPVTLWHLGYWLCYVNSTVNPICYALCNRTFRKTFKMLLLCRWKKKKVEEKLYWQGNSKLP
How it was run: (§1)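 Agonist-mode calcium mobilisation: compounds, 11 concentrations in triplicate, applied to stable M3_CHO or M5_CHO cells loaded with Ca++ dye, fluorescence followed 3 min. Efficacy expressed against carbachol EC100; EC curves by four-parameter nonlinear regression, geometric mean across independent runs.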

[2] = biological target: T2, Cloned human M1 receptor (CHRM1) (Homo sapiens, UniProt P11229); assay: CHRM1 Ca++ Flux Assay (HEK293 M1 cells, agonist mode); details: for M1 FDSS PA % / Emax: Percent Activity (PA); for pEC50: geometric mean if tested more than once, read-out: M1 FDSS EC50; for Emax: read-out: M1 FDSS PA %
T2 construct: expressed in transfected cells; host or cells: HEK293
T2 sequence (P11229 1-460): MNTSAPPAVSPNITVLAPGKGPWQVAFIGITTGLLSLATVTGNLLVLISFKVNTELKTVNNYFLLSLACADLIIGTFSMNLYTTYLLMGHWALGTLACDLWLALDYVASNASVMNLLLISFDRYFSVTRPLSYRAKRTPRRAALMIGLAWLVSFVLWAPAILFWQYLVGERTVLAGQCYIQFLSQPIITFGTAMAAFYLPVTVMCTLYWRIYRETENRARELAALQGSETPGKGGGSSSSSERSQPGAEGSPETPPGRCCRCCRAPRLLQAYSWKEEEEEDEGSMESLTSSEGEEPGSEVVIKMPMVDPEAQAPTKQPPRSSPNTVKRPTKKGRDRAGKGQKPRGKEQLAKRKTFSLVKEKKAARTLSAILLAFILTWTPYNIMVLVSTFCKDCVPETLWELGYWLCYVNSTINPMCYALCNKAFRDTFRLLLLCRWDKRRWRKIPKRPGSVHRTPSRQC
How it was run: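 In agonist mode, compound-induced intracellular Ca++ mobilization was recorded for 3 min by fluorescent imager. The cells were HEK293 stably expressing cloned human CHRM1, in Ca/Mg-free HBSS with 20 mM HEPES. Triplicate 11-point dose-responses were fitted by four-parameter regression and normalized to the carbachol EC100 response.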

[3] = biological target: T3, human cloned CHRM3 receptor (Homo sapiens, UniProt P20309); assay: CHRM3 Ca++ Flux Assay (M3_CHO cells, agonist mode); details: for M3 FDSS PA % / Emax: Percent Activity (PA) measured to EC100 of Carbachol; for pEC50: agonist mode, geometric mean if tested more than once, read-out: M3 FDSS EC50; for Emax: read-out: M3 FDSS PA %
T3 construct: expressed in transfected cells; host or cells: CHO-K1 (M3_CHO)
How it was run: as §1

T3 sequence (P20309 whole entry): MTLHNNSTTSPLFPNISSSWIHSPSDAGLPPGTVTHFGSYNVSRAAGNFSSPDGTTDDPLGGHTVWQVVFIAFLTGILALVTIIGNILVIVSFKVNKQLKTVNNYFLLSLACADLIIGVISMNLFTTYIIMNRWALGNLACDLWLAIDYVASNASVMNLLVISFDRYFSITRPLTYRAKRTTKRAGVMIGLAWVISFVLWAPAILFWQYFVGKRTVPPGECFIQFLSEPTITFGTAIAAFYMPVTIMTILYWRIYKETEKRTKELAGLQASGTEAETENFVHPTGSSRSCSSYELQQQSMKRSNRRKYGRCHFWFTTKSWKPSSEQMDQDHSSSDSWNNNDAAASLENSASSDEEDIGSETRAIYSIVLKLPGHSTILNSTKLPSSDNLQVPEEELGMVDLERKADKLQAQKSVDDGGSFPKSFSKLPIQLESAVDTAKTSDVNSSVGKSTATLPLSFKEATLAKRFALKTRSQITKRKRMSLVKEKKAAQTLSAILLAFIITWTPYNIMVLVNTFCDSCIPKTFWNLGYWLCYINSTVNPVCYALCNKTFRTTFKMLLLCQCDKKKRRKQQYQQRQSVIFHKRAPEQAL

Structure (SMILES)	M5 FDSS PA % [1] [%]	pEC50 [1]	M1 FDSS PA % [2] [%]	pEC50 [2]	M3 FDSS PA % [3] [%]	pEC50 [3]	Emax [1] [%]	Emax [2] [%]	Emax [3] [%]
c1ccc([C@@H]2CCOC2)c(C2CCN([C@@H]3COC4(C3)CN(c3nnco3)C4)CC2)c1 (single isomer, unassigned) [Example 3A, (S)-2-(1,3,4-oxadiazol-2-yl)-7-(4-(2-((S)-tetrahydrofuran-3-yl)phenyl)piperidin-1-yl)-5-oxa-2-azaspiro[3.4]octane or (S)-2-(1,3,4-oxadiazol-2-yl)-7-(4-(2-((R)-tetrahydrofuran-3-yl)phenyl)piperidin-1-yl)-5-oxa-2-azaspiro[3.4]octane]	0	< 4.60	85	5.95	0	< 4.60	–	–	–
C[C@H](Oc1ccc(F)cc1C1CCN([C@@H]2COC3(C2)CN(c2nnco2)C3)CC1)C1CCOCC1 [Example 2X, (S)-7-(4-(5-fluoro-2-((S)-1-(tetrahydro-2H-pyran-4-yl)ethoxy)phenyl)piperidin-1-yl)-2-(1,3,4-oxadiazol-2-yl)-5-oxa-2-azaspiro[3.4]octane or(S)-7-(4-(5-fluoro-2-((R)-1-(tetrahydro-2H-pyran-4-yl)ethoxy)phenyl)piperidin-1-yl)-2-(1,3,4-oxadiazol-2-yl)-5-oxa-2-azaspiro[3.4]octane]	0	< 4.60	42	4.95	0	< 4.60	–	–	–
COCCOc1ccc(F)cc1C1CCN([C@@H]2COC3(C2)CN(c2ncco2)C3)CC1 [Example 4L, (S)-7-(4-(5-fluoro-2-(2-methoxyethoxy)phenyl)piperidin-1-yl)-2-(oxazol-2-yl)-5-oxa-2-azaspiro[3.4]octane]	–	< 4.60	–	6.47	–	< 4.60	0	66	0
CC1(C)C[C@@H](Oc2ccc(F)cc2C2CCN([C@@H]3COC4(C3)CN(c3nnco3)C4)CC2)CO1 (single isomer, unassigned) [Example 2O, (S)-7-(4-(2-(((R)-5,5-dimethyltetrahydrofuran-3-yl)oxy)-5-fluorophenyl)piperidin-1-yl)-2-(1,3,4-oxadiazol-2-yl)-5-oxa-2-azaspiro[3.4]octane or (S)-7-(4-(2-(((S)-5,5-dimethyltetrahydrofuran-3-yl)oxy)-5-fluorophenyl)piperidin-1-yl)-2-(1,3,4-oxadiazol-2-yl)-5-oxa-2-azaspiro[3.4]octane]	0	< 4.60	72	5.95	0	< 4.60	–	–	–
CC(C)(O)[C@H]1C[C@@H](Oc2ccc(F)cc2C2CCN([C@@H]3COC4(C3)CN(c3ncco3)C4)CC2)C1 (single isomer, unassigned) [Example 4U, 2-((1R,3s)-3-(4-fluoro-2-(1-((S)-2-(oxazol-2-yl)-5-oxa-2-azaspiro[3.4]octan-7-yl)piperidin-4-yl)phenoxy)cyclobutyl)propan-2-ol or 2-((1S,3r)-3-(4-fluoro-2-(1-((S)-2-(oxazol-2-yl)-5-oxa-2-azaspiro[3.4]octan-7-yl)piperidin-4-yl)phenoxy)cyclobutyl)propan-2-ol]	0	< 4.60	55	5.65	0	< 4.60	–	–	–
c1ccc(C2CCN([C@@H]3COC4(C3)CN(c3ncco3)C4)CC2)c(C2CCOCC2)c1 [Example 4V, (S)-2-(oxazol-2-yl)-7-(4-(2-(tetrahydro-2H-pyran-4-yl)phenyl)piperidin-1-yl)-5-oxa-2-azaspiro[3.4]octane]	–	< 4.60	–	5.70	–	< 4.60	0	72	0
Fc1ccc(OC[C@H]2COCCO2)c(C2CCN([C@@H]3COC4(C3)CN(c3nnco3)C4)CC2)c1 [Example 1C]	–	< 4.60	–	6.24	–	< 4.60	0	72	0
CC(C)(O)[C@H]1C[C@H](Oc2ccc(F)cc2C2CCN([C@@H]3COC4(C3)CN(c3nnco3)C4)CC2)C1 (single isomer, unassigned) [Example 2W, 2-((1S,3r)-3-(2-(1-((S)-2-(1,3,4-oxadiazol-2-yl)-5-oxa-2-azaspiro[3.4]octan-7-yl)piperidin-4-yl)-4-fluorophenoxy)cyclobutyl)propan-2-ol or 2-((1R,3s)-3-(2-(1-((S)-2-(1,3,4-oxadiazol-2-yl)-5-oxa-2-azaspiro[3.4]octan-7-yl)piperidin-4-yl)-4-fluorophenoxy)cyclobutyl)propan-2-ol]	0	< 4.60	66	5.46	0	< 4.60	–	–	–
Fc1ccc(C2CCN([C@@H]3COC4(C3)CN(c3ncco3)C4)CC2)c(OC2COC2)c1 [Example 4S, (S)-7-(4-(4-fluoro-2-(oxetan-3-yloxy)phenyl)piperidin-1-yl)-2-(oxazol-2-yl)-5-oxa-2-azaspiro[3.4]octane]	–	< 4.60	–	6.20	–	< 4.60	0	89	0
COc1ccc(F)cc1C1CCN([C@@H]2COC3(C2)CN(c2ncco2)C3)CC1 [Example 4I, (S)-7-(4-(5-fluoro-2-methoxyphenyl)piperidin-1-yl)-2-(oxazol-2-yl)-5-oxa-2-azaspiro[3.4]octane]	–	< 4.60	–	6.64	–	< 4.60	0	82	0
Fc1ccc(OC2CCOCC2)c(C2CCN([C@@H]3COC4(C3)CN(c3nnco3)C4)CC2)c1 [Example 1G, (S)-7-(4-(5-fluoro-2-((tetrahydro-2H-pyran-4-yl)oxy)phenyl)piperidin-1-yl)-2-(1,3,4-oxadiazol-2-yl)-5-oxa-2-azaspiro[3.4]octane]	–	< 4.60	–	6.01	–	< 4.60	0	77	0
Fc1cc(OC2COC2)c(C2CCN([C@@H]3COC4(C3)CN(c3nnco3)C4)CC2)cc1F [Example 2FF, (S)-7-(4-(4,5-difluoro-2-(oxetan-3-yloxy)phenyl)piperidin-1-yl)-2-(1,3,4-oxadiazol-2-yl)-5-oxa-2-azaspiro[3.4]octane]	–	< 4.60	–	6.58	–	< 4.60	0	70	0
COc1cc(F)ccc1C1CCN([C@@H]2COC3(C2)CN(c2ncns2)C3)CC1 [Example 5E, (S)-7-(4-(4-fluoro-2-methoxyphenyl)piperidin-1-yl)-2-(1,2,4-thiadiazol-5-yl)-5-oxa-2-azaspiro[3.4]octane]	–	4.89	–	5.59	–	< 4.60	0	29	0
Fc1ccc(OC2CCOCC2)c(C2CCN([C@@H]3COC4(C3)CN(c3nncs3)C4)CC2)c1 [Example 5J, (S)-7-(4-(5-fluoro-2-((tetrahydro-2H-pyran-4-yl)oxy)phenyl)piperidin-1-yl)-2-(1,3,4-thiadiazol-2-yl)-5-oxa-2-azaspiro[3.4]octane]	–	< 4.60	–	5.92	–	< 4.60	0	6	0
